Data published in PMC4086519, “Anti-Trichophyton Activity of Protocatechuates and Their Synergism with Fluconazole” (Evidence-based Complementary and Alternative Medicine : eCAM, 2014).
≈ marks a conversion by molar mass, not a printed value. Where two headings read alike, the source gives them in different places.

Tests used:
[1] = tested on: Trichophyton rubrum; assay: Checkerboard synergism assay with fluconazole; assay type: cell-based; details: for MIC, substances alone: Tr1, checkerboard, 168 hours
Experimental: (§1) The drug activity was assessed using a checkerboard method derived from a standardised procedure established by the National Committee for Clinical Laboratory Standards ([…]-A2). Briefly, the test was performed on the same medium used for susceptibility testing. Volumes of 50 μL of each drug in a concentration four times the final concentration were dispensed in 96-well plates ([…], Switzerland). To each well, 100 μL of the fungal suspension was added to produce a final concentration of 5.0 × 10^3 CFU/mL. As a negative control, we used 200 μL of RPMI, while as a positive control, we used 100 μL of RPMI medium with 100 μL of inoculum. The plates were incubated at 35°C, and the reading was completed after 168 hours. We conducted visual and spectrophotometric readings at 490 nm. To determine the effect of combinatorial fractions, we calculated the fractional inhibitory concentration (FIC). The FIC was calculated by taking the MIC of the substance in combination/MIC of the substance alone. The sum of the fractional inhibitory concentration (FIC) of each substance consists of the fractional inhibitory concentration index: (the MIC of drug A in combination/the MIC of drug A alone) + (the MIC of drug B in combination/the MIC of drug B alone).

[2] = tested on: Trichophyton mentagrophytes; assay: Checkerboard synergism assay with fluconazole; assay type: cell-based; details: for MIC, substances alone: checkerboard, 168 hours
Experimental: as §1

[3] = tested on: NOK (oral human keratinocyte) cell lines; assay: Sulphorhodamine B cytotoxicity assay; assay type: cell-based; details: NOK cells, 24 hours
Experimental: The cytotoxicity of sixteen semisynthetic compounds derived from protocatechuic acid was assessed using a sulphorhodamine B assay in NOK (oral human keratinocyte) cell lines obtained from the American Type Culture Collection (Manassas, VA, USA). The strains were maintained in bottles appropriate for cell culture with keratinocyte serum free medium (Gibco, Life Technologies) and incubated in standard conditions of 37°C and 5% CO2. Cell concentrations ranging from 2.5 to 5.0 × 10^4 cells/mL were used for the formation of cell monolayers. The concentrations of pure substances were kept in contact with the cells for 24 hours. After the incubation period, the cells were treated with the sulphorhodamine B reagent (Sigma-Aldrich, St. Louis, MO, USA) as previously described by Skehan et al., with some modifications.

[4] = tested on: Trichophyton rubrum; assay: Minimum fungicide concentration (MFC); assay type: cell-based
Experimental: (§2) A qualitative analysis of the fungal viability was performed by transferring a portion of the wells to a plate with Sabouraud (Difco, BD Biosciences) medium and incubating it at 35°C for the time determined for each fungal agent. […] A visual reading was performed to confirm the death or growth inhibition provided by fluconazole and the sixteen semisynthetic substances derived from protocatechuic acid.

[5] = tested on: Trichophyton mentagrophytes; assay: Minimum fungicide concentration (MFC); assay type: cell-based
Experimental: as §2

[6] = tested on: Trichophyton rubrum; assay: Broth microdilution MIC (CLSI M38-A2, modified); assay type: cell-based; details: 35°C, 7 days
Experimental: (§3) To evaluate its antifungal activity, […] of dermatophytes were tested: two clinical strains of Trichophyton rubrum (Tr1 and Tr2), Trichophyton rubrum ATCC MYA 3108, two clinical strains of Trichophyton mentagrophytes (Tm1 and Tm2), and Trichophyton mentagrophytes ATCC 40131 (Tm3). The microorganisms were obtained from the collection of the Clinical Mycology Laboratory of the Department of Clinical Analyses at the School of Pharmaceutical Sciences of Universidade Estadual Paulista (UNESP). The strains were cultivated on Sabouraud dextrose agar (Difco, BD Biosciences) and incubated at 28°C for 7-15 days. For all experiments, the strains were cultivated on Potato Dextrose Agar (Difco, BD Biosciences) and incubated at 28°C as described above or until sporulation. The dilution of the synthetic compounds was performed with DMSO (Synth, Diadema, Sao Paulo, Brazil) as described by Scorzoni et al.. […] The antifungal drugs were diluted according to the CLSI […]-A2 document. Stock solutions of Fluconazole (Sigma-Aldrich, St. Louis, MO, USA) were prepared, considering its power. Serial twofold dilutions were prepared according to the recommendations of Zhang and collaborators, with some modifications. The antifungal activity tests were performed using the broth microdilution method as described in […]-A2, a document produced by the Clinical and Laboratory Standards Institute (CLSI, 2008), with modifications. The medium used was RPMI 1640 with L-glutamine (Sigma-Aldrich, St. Louis, MO, USA) buffered to pH 7.0 with 0.165 M morpholinepropanesulfonic acid (MOPS) (Sigma-Aldrich, St. Louis, MO, USA), supplemented with 2% glucose. […] The suspension of conidia was then transferred to small sterile test tubes where they remained for 40 minutes to separate the microconidia, which were lighter and therefore present in the supernatant. […] These suspensions were diluted in RPMI 1640 (Sigma-Aldrich, St. […] Positive (100 μL of RPMI medium with 100 μL of inoculum) and negative (200 μL of RPMI) controls were included in all experiments. The plates were incubated with agitation at 35°C for 7 days. The MIC reading was performed by spectrophotometry at 490 nm.

[7] = tested on: Trichophyton mentagrophytes; assay: Broth microdilution MIC (CLSI M38-A2, modified); assay type: cell-based; details: 35°C, 7 days
Experimental: as §3

[8] = tested on: Saccharomyces cerevisiae; set-up: method as in PMID 14592492; details: cited from earlier work
[9] = Tr1, T. rubrum clinical isolate
[10] = Tr2, T. rubrum clinical isolate
[11] = Tm3, T. mentagrophytes ATCC 40131

Structure (SMILES) | FIC index [1] | association type (in words) [1] | MIC, substances alone [1] [µg/mL] | MIC of the protocatechuate, substances combined [2] [µg/mL] | association type (in words) [2] | MIC, substances alone ([2]; Tm1) [µg/mL] | MIC, substances alone ([2]; Tm3 (ATCC 40131)) [µg/mL] | Cytotoxicity IC50 [3] [µg/mL] | MFC [4, 9] [µg/mL] | MFC [4, 10] [µg/mL] | MFC ([4]; Tr3, T. rubrum ATCC MYA 3108) [µg/mL] | MFC ([5]; Tm1, clinical isolate) [µg/mL] | MFC ([5]; Tm2, clinical isolate) [µg/mL] | MFC [5, 11] [µg/mL] | MIC [6, 9] [µg/mL] | MIC [6, 10] [µg/mL] | MIC ([6]; Tr3, T. rubrum ATCC MYA 3108) [µg/mL] | MIC ([7]; Tm1, clinical isolate) [µg/mL] | MIC ([7]; Tm2, clinical isolate) [µg/mL] | MIC [7, 11] [µg/mL] | further results
CCCCCOC(=O)c1ccc(O)c(O)c1 [Protocatechuate pentyl, pentyl protocatechuate] | 1.0 | additive | 7.8 | 0.03 | additive | 3.9 | 7.8 | 57.0 | 7.8 (≈ 34.8 µM) | 7.8 (≈ 34.8 µM) | 7.8 (≈ 34.8 µM) | 15.6 (≈ 69.6 µM) | 7.8 (≈ 34.8 µM) | 7.8 (≈ 34.8 µM) | 7.8 (≈ 34.8 µM) | 7.8 (≈ 34.8 µM) | 7.8 (≈ 34.8 µM) | 3.90 (≈ 17.4 µM) | 7.8 (≈ 34.8 µM) | 7.8 (≈ 34.8 µM) | MIC of fluconazole, substances combined [1]: 0.12 µg/mL; MIC of the protocatechuate, substances combined [1]: 7.8 µg/mL; reduction in the MIC of fluconazole [1]: 16.66 times; FIC index [2]: 1.0; MIC of fluconazole, substances combined [2]: 0.5 µg/mL; reduction in the MIC of the protocatechuate [2]: 130 fold
CCCCCCCCOC(=O)c1ccc(O)c(O)c1 [Protocatechuate octyl, octyl protocatechuate] | 1.0 | additive | 1.9 | 0.03 | additive | 1.9 | 3.9 | 54.0 | 1.95 (≈ 7.32 µM) | 7.8 (≈ 29.3 µM) | 1.95 (≈ 7.32 µM) | 3.90 (≈ 14.6 µM) | 1.95 (≈ 7.32 µM) | 3.9 (≈ 14.6 µM) | 1.95 (≈ 7.32 µM) | 7.8 (≈ 29.3 µM) | 0.97 (≈ 3.64 µM) | 1.95 (≈ 7.32 µM) | 1.95 (≈ 7.32 µM) | 3.9 (≈ 14.6 µM) | MIC of the protocatechuate, substances combined [1]: 0.06 µg/mL; reduction in the MIC of the protocatechuate [1]: 31.66 times; FIC index [2]: 0.72; fungicidal activity [8]: fungicidal activity
CCCCCCCCCOC(=O)c1ccc(O)c(O)c1 [Protocatechuate nonyl, nonyl protocatechuate] | 1.0 | additive | 1.9 | 0.03 | additive | 3.9 | 3.9 | 52.1 | 1.95 (≈ 6.96 µM) | 3.9 (≈ 13.9 µM) | 3.90 (≈ 13.9 µM) | 3.9 (≈ 13.9 µM) | 3.9 (≈ 13.9 µM) | 3.9 (≈ 13.9 µM) | 1.95 (≈ 6.96 µM) | 3.9 (≈ 13.9 µM) | 1.95 (≈ 6.96 µM) | 3.9 (≈ 13.9 µM) | 3.9 (≈ 13.9 µM) | 3.9 (≈ 13.9 µM) | MIC of the protocatechuate, substances combined [1]: 0.03 µg/mL; reduction in the MIC of the protocatechuate [1]: 63.33 times; FIC index [2]: 1.0; MIC of fluconazole, substances combined [2]: 0.5 µg/mL; reduction in the MIC of the protocatechuate [2]: 130 fold
CCCCCCCOC(=O)c1ccc(O)c(O)c1 [Protocatechuate heptyl, protocatechuate heptyl] | 1.0 | additive | 1.9 | 0.03 | synergistic | 3.9 | 3.9 | 78.1 | 1.95 (≈ 7.73 µM) | 1.95 (≈ 7.73 µM) | 1.95 (≈ 7.73 µM) | 3.9 (≈ 15.5 µM) | 0.97 (≈ 3.84 µM) | 3.9 (≈ 15.5 µM) | 1.95 (≈ 7.73 µM) | 1.95 (≈ 7.73 µM) | 1.95 (≈ 7.73 µM) | 3.9 (≈ 15.5 µM) | 0.97 (≈ 3.84 µM) | 3.9 (≈ 15.5 µM) | reduction in the MIC of fluconazole [2]: fourfold; FIC index ([2]; listed as 9): 0.48; reduction in the MIC of fluconazole ([2]; listed as 9): four-
